These results are taken from patent US20220162163A1, “ALANINE-BASED MODULATORS OF PROTEOLYSIS AND ASSOCIATED METHODS OF USE” (Arvinas Operations, Inc., priority 2015, published 2022).

Common to all, as to type: cell-based
For experiment [1], the target named is T1, EZH2 (Homo sapiens, UniProt Q15910).
T1 construct: endogenous in cells; host or cells: MDA-MB-231
Description: Cellular assay of EZH2 degradation (MDA-MB-231 cells, Western blot). Particulars: EZH2, MDA-MB-231 cells, PROTAC concentration 3 μM, relative to DMSO control. The procedure: Protocol of the Cellular Assay of EZH2 Degradation (MDA-MB-231 Cells, Western Blot).
MDA-MB-231 cells were plated at 10,000 cells per well in 6 well plates, 2 ml/well in DMEM+10% Fetal Bovine Serum. Cells were allowed to grow for 3 days at 37 degrees C. Cells were dosed with PROTACs. On day 3 and day 7 after dosing, cells were harvested and lysed with RIPA buffer. Lysed cells were transferred to eppendorf tubes, and each lysate was sonicated and then spinned in microfuge for 15 minutes at 20,000×g at 4 degrees C. Supernatant was transferred to a clean tube, and protein concentration was quantitated using the Pierce BCA Protein Assay kit (cat #23225). Lysate concentrations were adjusted to 1 microgram/microliter in lysis buffer. For Western blot samples were loaded in 4×LDS buffer, 10 microliters/lane, onto Noxex NuPage 4-12% Bis-Tris Midi Gel […]×26 well.
Gels were run on BioRad power source Model 1000/500, at 200V constant voltage for 1 hour. Gels were then transferred onto a nitrocellulose membrane using an iBlot2 transfer apparatus from Life Technologies. Transfers were done on Program 0 and blocked for 1 hour in TBS-T (Tris Buffered Saline with 0.05% Tween 20)+5% BSA (Bovine Serum Albumin). Block solution was decanted, and the primary antibody solutions were added (EZH2-Cell Signaling #5246S; tri-methyl-Histone H3-Cell Signaling #9733S; Histone H3-Cell Signaling #4499; all diluted 1:1000 in 20 ml TBS-T+5% BSA). The preparation was placed in cold room (4 degrees C.) overnight on rocker platform, after which the antibody solution was decanted. The preparation was washed 3 times in TBS-T for 10 minutes each, and anti-rabbit secondary antibody (Cell Signaling #7074S), diluted 1:20,000 in TBS-T+5% BSA, was added. This was followed by incubating for 1 hour at room temperature with gentle rocking and washing 3 times in TBS-T. To develop blots SuperSignal™ West Femto Maximum Sensitivity Substrate (Life Technologies Catalog number: 34095) solution was applied for 5 minutes. Blots were imaged on BioRad ChemiDoc Imager using the “Chemi Hi Sensitivity” protocol. Bands were quantitated using Image Lab software v 5.2.1.

Experiment [2] has as its target T2, JNK1 (Homo sapiens, UniProt P45983).
T2 construct: A549 lung adenocarcinoma cells were purchased from ATCC and cultured in RPMI1640 Medium; endogenous in cells; host or cells: A549
Description: Cellular assay of JNK degradation (A549 cells, Western blot), JNK1. The settings on record: for JNK1 degradation range: PROTAC concentration 1 μM, relative to DMSO control; for DC50: read-out: JNK1 DC50 range. The procedure: (§1) Protocol of the cellular assay of JNK degradation (A549 cells, Western blot). A549 lung adenocarcinoma cells were purchased from ATCC and cultured in RPMI1640 Medium (Gibco) supplemented with 10% Fetal Bovine Serum (Gibco). […] Cells were stimulated with PMA (Phorbol 12-myristate 13-acetate, Sigma) for 1 hour before harvesting. Cells were lysed in Cell Signaling lysis buffer supplemented with protease inhibitors (Thermo). The lysates were centrifuged at 20,000×g for 15 minutes to clarify, and protein concentration was determined by BCA (Pierce). Equal amounts of protein (5 micrograms) were separated by SDS-PAGE and transferred onto nitrocellulose membranes. The mermbranes were probed with antibodies against SAPK/JNK (Cell Signaling #9252), phospho-c-Jun (Cell Signaling #3270), MDM2 (Sigma M4308) and p53 (Cell Signaling #2527). HRP-conjugated anti-rabbit and anti-mouse secondary antibodies were from Cell Signaling. The bands were visualized with SuperSignal West Femto Substrate (Thermo). Quantitation was done using Image Lab Software v5.2.1.

For experiment [3], the target named is T3, JNK2 (Homo sapiens, UniProt P45984).
T3 construct: A549 lung adenocarcinoma cells were purchased from ATCC and cultured in RPMI1640 Medium; endogenous in cells; host or cells: A549
The experiment in a line: Cellular assay of JNK degradation (A549 cells, Western blot), JNK2. Particulars: for JNK2 degradation range: PROTAC concentration 1 μM, relative to DMSO control; for DC50: read-out: JNK2 DC50 range. The procedure:
as §1
Background: A western blot detects proteins with antibodies after separation by electrophoresis.

T3 sequence (P45984 whole entry): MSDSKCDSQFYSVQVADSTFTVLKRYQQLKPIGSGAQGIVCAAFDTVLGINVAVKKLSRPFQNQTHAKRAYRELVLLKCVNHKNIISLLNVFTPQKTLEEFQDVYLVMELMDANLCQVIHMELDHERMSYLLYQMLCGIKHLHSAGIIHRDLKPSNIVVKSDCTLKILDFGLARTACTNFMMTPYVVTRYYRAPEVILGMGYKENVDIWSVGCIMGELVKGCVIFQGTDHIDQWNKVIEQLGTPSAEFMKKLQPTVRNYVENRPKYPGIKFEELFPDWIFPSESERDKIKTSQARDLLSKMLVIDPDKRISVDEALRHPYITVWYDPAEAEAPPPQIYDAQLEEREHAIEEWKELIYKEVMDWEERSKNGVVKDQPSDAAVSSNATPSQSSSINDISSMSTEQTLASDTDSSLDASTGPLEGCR
T2 sequence (P45983 whole entry): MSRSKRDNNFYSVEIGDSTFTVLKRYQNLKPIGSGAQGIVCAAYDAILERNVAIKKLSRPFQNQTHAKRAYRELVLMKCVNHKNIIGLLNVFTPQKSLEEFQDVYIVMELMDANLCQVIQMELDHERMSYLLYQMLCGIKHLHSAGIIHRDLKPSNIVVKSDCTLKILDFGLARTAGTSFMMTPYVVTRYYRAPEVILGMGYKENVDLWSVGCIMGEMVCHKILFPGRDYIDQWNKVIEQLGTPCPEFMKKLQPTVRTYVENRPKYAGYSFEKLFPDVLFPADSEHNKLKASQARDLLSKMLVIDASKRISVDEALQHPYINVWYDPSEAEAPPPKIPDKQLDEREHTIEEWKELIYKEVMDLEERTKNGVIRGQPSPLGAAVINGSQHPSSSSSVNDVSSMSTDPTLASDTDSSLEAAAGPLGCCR
T1 sequence (Q15910 whole entry): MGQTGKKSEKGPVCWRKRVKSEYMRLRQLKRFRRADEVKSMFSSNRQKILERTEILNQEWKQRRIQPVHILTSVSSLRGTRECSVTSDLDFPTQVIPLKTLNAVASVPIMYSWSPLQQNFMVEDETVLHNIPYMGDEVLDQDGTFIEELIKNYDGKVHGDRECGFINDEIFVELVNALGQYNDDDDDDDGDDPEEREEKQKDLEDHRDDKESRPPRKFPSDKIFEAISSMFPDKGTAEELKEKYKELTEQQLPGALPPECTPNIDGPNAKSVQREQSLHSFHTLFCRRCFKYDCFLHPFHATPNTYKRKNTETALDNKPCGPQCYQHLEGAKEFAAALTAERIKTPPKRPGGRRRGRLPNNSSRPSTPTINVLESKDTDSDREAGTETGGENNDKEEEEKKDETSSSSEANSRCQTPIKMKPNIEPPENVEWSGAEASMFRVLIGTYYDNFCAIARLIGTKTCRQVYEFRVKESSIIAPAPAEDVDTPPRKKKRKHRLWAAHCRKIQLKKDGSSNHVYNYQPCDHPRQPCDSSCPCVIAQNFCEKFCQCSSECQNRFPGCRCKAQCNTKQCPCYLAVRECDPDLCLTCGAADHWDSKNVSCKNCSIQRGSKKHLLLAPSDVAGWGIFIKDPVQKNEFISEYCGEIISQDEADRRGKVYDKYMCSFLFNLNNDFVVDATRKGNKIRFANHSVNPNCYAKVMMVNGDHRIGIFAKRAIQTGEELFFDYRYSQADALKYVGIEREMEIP
T1 sequence (O75530 whole entry partner): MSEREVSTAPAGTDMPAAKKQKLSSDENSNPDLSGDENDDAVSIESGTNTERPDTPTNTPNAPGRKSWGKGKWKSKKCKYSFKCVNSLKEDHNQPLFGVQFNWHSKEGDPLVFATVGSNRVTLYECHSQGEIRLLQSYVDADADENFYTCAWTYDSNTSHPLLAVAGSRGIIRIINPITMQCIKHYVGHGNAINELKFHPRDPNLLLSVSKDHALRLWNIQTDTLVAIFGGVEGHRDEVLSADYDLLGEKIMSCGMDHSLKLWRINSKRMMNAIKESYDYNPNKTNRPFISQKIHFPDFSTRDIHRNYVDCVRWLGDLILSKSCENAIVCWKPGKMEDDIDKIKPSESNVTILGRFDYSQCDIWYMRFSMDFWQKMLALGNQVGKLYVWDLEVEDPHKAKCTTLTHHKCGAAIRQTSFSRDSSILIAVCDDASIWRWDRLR
T1 sequence (Q15022 whole entry partner): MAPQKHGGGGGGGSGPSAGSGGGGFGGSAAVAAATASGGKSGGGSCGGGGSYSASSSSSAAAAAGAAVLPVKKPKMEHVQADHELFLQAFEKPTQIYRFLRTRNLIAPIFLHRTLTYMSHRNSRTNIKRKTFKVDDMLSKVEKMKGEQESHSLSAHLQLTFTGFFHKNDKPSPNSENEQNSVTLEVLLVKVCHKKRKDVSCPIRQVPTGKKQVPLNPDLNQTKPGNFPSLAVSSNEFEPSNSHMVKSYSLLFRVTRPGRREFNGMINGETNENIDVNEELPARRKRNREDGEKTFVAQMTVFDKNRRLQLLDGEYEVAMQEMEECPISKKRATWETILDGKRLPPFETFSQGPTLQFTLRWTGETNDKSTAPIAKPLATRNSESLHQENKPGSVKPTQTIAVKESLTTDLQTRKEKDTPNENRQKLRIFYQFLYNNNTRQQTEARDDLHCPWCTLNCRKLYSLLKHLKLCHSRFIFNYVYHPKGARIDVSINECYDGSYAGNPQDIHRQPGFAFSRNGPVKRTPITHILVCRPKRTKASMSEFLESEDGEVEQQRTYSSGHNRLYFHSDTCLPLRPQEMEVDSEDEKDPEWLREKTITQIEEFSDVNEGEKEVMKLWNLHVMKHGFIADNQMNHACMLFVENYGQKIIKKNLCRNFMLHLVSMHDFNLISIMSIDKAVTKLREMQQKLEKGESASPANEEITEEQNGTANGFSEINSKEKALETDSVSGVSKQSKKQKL

For the molecule `CCN(c1cc(-c2ccc(OCCOCCOCCOCCOCCOc3ccc(CCN4CC[C@H]5CCN(C(=O)[C@@H](NC(=O)[C@H](C)NC)C6CCCCC6)[C@H]5C4)cc3)cc2)cc(C(=O)NCc2c(C)cc(C)[nH]c2=O)c1C)C1CCOCC1` (racemic) [Example 8, 5-(4-[[1-(4-[2-[1-[(2S)-2-cyclohexyl-2-[(2S)-2-(methylamino)propanamido]acetyl]-octahydro-1H-pyrrolo[2,3-c]pyridin-6-yl]ethyl]phenyl)-1,4,7,10,13-pentaoxapentadecan-15-yl]oxy]phenyl)-N-[(4,6-dimethyl-2-oxo-1,2-dihydropyridin-3-yl)methyl]-3-[ethyl(oxan-4-yl)amino]-2-methylbenzamide], in experiment [1], the “Target protein degradation range” value is “C (degradation between 0% and 30%)”.
As to `CCN(c1cc(-c2ccc(OCCOCCOCCOc3ccc(CCN4CC[C@H]5CCN(C(=O)[C@@H](NC(=O)[C@H](C)NC)C6CCCCC6)[C@H]5C4)cc3)cc2)cc(C(=O)NCc2c(C)cc(C)[nH]c2=O)c1C)C1CCOCC1` (racemic) [Example 9, 5-[4-(2-[2-[2-(4-[2-[1-[(2S)-2-cyclohexyl-2-[(2S)-2-(methylamino)propanamido]acetyl]-octahydro-1H-pyrrolo[2,3-c]pyridin-6-yl]ethyl]phenoxy)ethoxy]ethoxy]ethoxy)phenyl]-N-[(4,6-dimethyl-2-oxo-1,2-dihydropyridin-3-yl)methyl]-3-[ethyl(oxan-4-yl)amino]-2-methylbenzamide], the “Target protein degradation range” value in experiment [1] is “C (degradation between 0% and 30%)”.
The DC50 is the concentration giving 50% degradation. Take `CN[C@@H](C)C(=O)N[C@H](C(=O)N1CC[C@@H]2CCN(CCc3ccc(OCCOCCOCCOCCOC4CCC(Nc5nccc(-c6cnn(Cc7ccccc7)c6N(C)C)n5)CC4)cc3)C[C@@H]21)C1CCCCC1` (mixture of isomers) [Example 19, (2S)—N-[(1S)-1-cyclohexyl-2-oxo-2-(6-[2-[4-([1-[(1r,4r)-4-([4-[1-benzyl-5-(dimethylamino)-1H-pyrazol-4-yl]pyrimidin-2-yl]amino)cyclohexyl]-1,4,7,10-tetraoxadodecan-12-yl]oxy)phenyl]ethyl]-octahydro-1H-pyrrolo[2,3-c]pyridin-1-yl)ethyl]-2-(methylamino)propanamide]: in experiment [2], the JNK1 degradation range entry is recorded as “A (degradation more than 60%)” and the half-maximal degradation concentration (DC50) was in the range of 1 to 100 nM. In experiment [3], the JNK2 degradation range result is given as “A (degradation more than 60%)” and the DC50 fell in the range of 100 to 1000 nM.
In the case of `CCN(c1cc(-c2ccc(OCCOCCOCCOc3ccc(-c4csc([C@@H]5CCCN5C(=O)[C@@H](NC(=O)[C@H](C)NC)C5CCCCC5)n4)c4ccccc34)cc2)cc(C(=O)NCc2c(C)cc(C)[nH]c2=O)c1C)C1CCOCC1` [Example 10, 5-[4-[2-(2-[2-[(4-[2-[(2S)-1-[(2S)-2-cyclohexyl-2-[(2S)-2-(methylamino)propanamido]acetyl]pyrrolidin-2-yl]-1,3-thiazol-4-yl]naphthalen-1-yl)oxy]ethoxy]ethoxy)ethoxy]phenyl]-N-[(4,6-dimethyl-2-oxo-1,2-dihydropyridin-3-yl)methyl]-3-[ethyl(oxan-4-yl)amino]-2-methylbenzamide], in experiment [1], the “Target protein degradation range” value was “B (degradation between 30% and 60%)”.
The same measure, in the same setting: the result for `CCN(c1cc(-c2ccc(OCCOCCOCCOCCOCCOc3ccc(-c4csc([C@@H]5CCCN5C(=O)[C@@H](NC(=O)[C@H](C)NC)C5CCCCC5)n4)c4ccccc34)cc2)cc(C(=O)NCc2c(C)cc(C)[nH]c2=O)c1C)C1CCOCC1` [Example 11, 5-(4-[[1-(4-[2-[(2S)-1-[(2S)-2-cyclohexyl-2-[(2S)-2-(methylamino)propanamido]acetyl]pyrrolidin-2-yl]-1,3-thiazol-4-yl]naphthalen-1-yl)-1,4,7,10,13-pentaoxapentadecan-15-yl]oxy]phenyl)-N-[(4,6-dimethyl-2-oxo-1,2-dihydropyridin-3-yl)methyl]-3-[ethyl(oxan-4-yl)amino]-2-methylbenzamide] reads “B (degradation between 30% and 60%)”.
Take `CN[C@@H](C)C(=O)N[C@H](C(=O)N1CCC[C@H]1c1nc(-c2ccc(OCCOCCOCCOCCOCCO[C@H]3CC[C@H](Nc4nccc(-c5cnn(Cc6ccccc6)c5N(C)C)n4)CC3)c3ccccc23)cs1)C1CCCCC1` [Example 12, (2S)—N-[(1S)-1-cyclohexyl-2-oxo-2-[(2S)-2-[4-[4-([1-[(1r,4r)-4-([4-[1-benzyl-5-(dimethylamino)-1H-pyrazol-4-yl]pyrimidin-2-yl]amino)cyclohexyl]-1,4,7,10,13-pentaoxapentadecan-15-yl]oxy)naphthalen-1-yl]-1,3-thiazol-2-yl]pyrrolidin-1-yl]ethyl]-2-(methylamino)propanamide]: in experiment [2], the JNK1 degradation range result is “A (degradation more than 60%)” and the DC50 lay in the range of 1 to 100 nM. Moreover, in experiment [3], the JNK2 degradation range result was “B (degradation between 30% and 60%)”.
For the molecule `CN[C@@H](C)C(=O)N[C@H](C(=O)N1CCC[C@H]1c1nc(-c2ccc(OCCOCCO[C@H]3CC[C@H](Nc4nccc(-c5cnn(Cc6ccccc6)c5N(C)C)n4)CC3)c3ccccc23)cs1)C1CCCCC1` [Example 13, (2S)—N-[(1S)-1-cyclohexyl-2-oxo-2-[(2S)-2-(4-[4-[2-(2-[[(1r,4r)-4-([4-[1-benzyl-5-(dimethylamino)-1H-pyrazol-4-yl]pyrimidin-2-yl]amino)cyclohexyl]oxy]ethoxy)ethoxy]naphthalen-1-yl]-1,3-thiazol-2-yl)pyrrolidin-1-yl]ethyl]-2-(methylamino)propanamide], in experiment [2], the JNK1 degradation range entry is “A (degradation more than 60%)” and the DC50 is 1 to 100 nM. Further, in experiment [3], the JNK2 degradation range entry is “A (degradation more than 60%)” and the DC50 fell in the range of 100 to 1000 nM.
Take `CN[C@@H](C)C(=O)N[C@H](C(=O)N1CCC[C@H]1c1nc(-c2ccc(OCCOCCOCCOC3CCC(Nc4nccc(-c5cnn(Cc6ccccc6)c5N(C)C)n4)CC3)c3ccccc23)cs1)C1CCCCC1` (stereo partly drawn) [Example 14, (S)—N—((S)-2-((S)-2-(4-(4-(2-(2-(2-((1r,4r)-4-(4-(1-benzyl-5-(dimethylamino)-1H-pyrazol-4-yl)pyrimidin-2-ylamino)cyclohexyloxy)ethoxy)ethoxy)ethoxy)naphthalen-1-yl)thiazol-2-yl)pyrrolidin-1-yl)-1-cyclohexyl-2-oxoethyl)-2-(methylamino)propanamide]: in experiment [2], the JNK1 degradation range result is reported as “A (degradation more than 60%)” and the DC50 fell in the range of 1 to 100 nM. The JNK2 degradation range entry in experiment [3] is “B (degradation between 30% and 60%)”.
`CN[C@@H](C)C(=O)N[C@H](C(=O)N1CCC[C@H]1c1nc(-c2ccc(OCCOCCOCCOCCOC3CCC(Nc4nccc(-c5cnn(Cc6ccccc6)c5N(C)C)n4)CC3)c3ccccc23)cs1)C1CCCCC1` (stereo partly drawn) [Example 15, (2S)—N-[(1S)-1-cyclohexyl-2-oxo-2-[(2S)-2-[4-[4-([1-[(1r,4r)-4-([4-[1-benzyl-5-(dimethylamino)-1H-pyrazol-4-yl]pyrimidin-2-yl]amino)cyclohexyl]-1,4,7,10-tetraoxadodecan-12-yl]oxy)naphthalen-1-yl]-1,3-thiazol-2-yl]pyrrolidin-1-yl]ethyl]-2-(methylamino)propanamide]: in experiment [2], the JNK1 degradation range result was “A (degradation more than 60%)” and the DC50 fell in the range of 100 to 1000 nM. Further, the JNK2 degradation range entry in experiment [3] was “B (degradation between 30% and 60%)”.
